Results published in patent publication US12215363B2, “Balanced indels” (Keygene N.V., priority 2017, dated 2025).

Tests used:
tomato protoplasts = experiment: Recovery of chlorsulfuron resistant calli after transfection of tomato protoplasts; format: cell-based, Solanum lycopersicon var Moneyberg; details: ALS1/ALS2 alleles sequenced from chlorsulfuron resistant calli versus alleles seen only in protoplast sequence data
Experimental: (§1) For the protoplast transfections 10 μg of KG9387 and 20 μg of one of the sgRNA expressing plasmids (KG10177, KG10190, KG10191, KG10240) mixed with 500 μL (500000 protoplasts) of the protoplast suspension and 500 μL of PEG solution (400 g/l poly(ethylene glycol) 4000, Sigma-Aldrich #81240; 0.1M Ca(NO3)2) was then added and the transfection was allowed to take place for 20 minutes at room temperature. Control samples were also produced by omitting one or both of the plasmids from the transfection. Then, 10 mL of 0.275 M Ca(NO3)2 solution was added and thoroughly, but gently mixed in. The protoplasts were harvested by centrifugation for 5 minutes at 800 rpm and resuspended in 9M culture medium at a density of 0.5×10^6 per ml and transferred to a 4 cm diameter petri dish and an equal volume of 2% alginate solution (20 g/l Alginate-Na (Sigma-Aldrich #A0682), 0.14 g/l CaCl2.2H2O, 90 g/l mannitol) was added. […]
(§2) Total genomic DNA was isolated from tomato protoplasts (48 hrs post transfection) using the DNeasy Plant Mini Kit (Qiagen). […] After sequencing the reads derived from each sample were processed to identify the number and types of sequence changes present at the target site. […]

[1] = tested on: ALS1/ALS2 target sequence; experiment: Indel formation at the ALS1/ALS2 target sites in transfected tomato protoplasts (amplicon sequencing, MiSeq); format: cell-based, Solanum lycopersicon var Moneyberg; details: genomic DNA 48 hours after transfection
Experimental: as §1, §2

Molecule | Chlorsulfuron resistance phenotype of the altered ALS allele (in words) (tomato protoplasts) | Sequence reads with indels at ALS1 and ALS2 target sites (in words) [1]
GQVPGGLMIGT: ALS amino acid change from other pairs of indels in the sequence data, not recovered in resistant calli | not resistance alleles | 
GRRGGLIGT: ALS amino acid change from other pairs of indels in the sequence data, not recovered in resistant calli | not resistance alleles | 
KG10240: cassette (SEQ ID NO. 28) expressing all sgRNAs of KG10177, KG10190 and KG10191 separated by tRNA sequences (nucleic acid, KG10240) DNA: GGAGTGATCAAAAGTCCCACATCGATCAGGTGATATATAGCAGCTTAGTTTATATAATGATAGAGTCGACATAGCGATTGAACAAAGCACCAGTGGTCTAGTGGTAGAATAGTACCCTGCCACGGTACAGACCCGGGTTCGATTCCCGGCTGGTGCACAAGTGCCGAGGAGGATGATGTTTTAGAGCTAGAAATAGCAAGTTAAAATAAGGCTAGTCCGTTATCAACTTGAAAAAGTGGCACCGAGTCGGTGCAACAAAGCACCAGTGGTCTAGTGGTAGAATAGTACCCTGCCACGGTACAGACCCGGGTTCGATTCCCGGCTGGTGCACATCCTCCTCGGCACTTGACGTTTTAGAGCTAGAAATAGCAAGTTAAAATAAGGCTAGTCCGTTATCAACTTGAAAAAGTGGCACCGAGTCGGTGCAACAAAGCACCAGTGGTCTAGTGGTAGAATAGTACCCTGCCACGGTACAGACCCGGGTTCGATTCCCGGCTGGTGCATTACCGGTCAAGTGCCGAGGGTTTTAGAGCTAGAAATAGCAAGTTAAAATAAGGCTAGTCCGTTATCAACTTGAAAAAGTGGCACCGAGTCGGTGCTTTTTTTCTAGACCCAGCTTTCTTGTACAAAGTTGGCATTACGCT |  | resulted in reads that contained more than one indel
